Reference: US11767341B2, “Lincosamide antibiotics and uses thereof” (President and Fellows of Harvard College, priority 2017, dated 2023)
In brackets after ≈: the same amount, converted by molar mass.

Tested on: S. aureus ATCC 29213
Assay: MIC determination
Format: cell-based
Conditions: Staphylococcus aureus, ATCC29213, S. aureus ATCC 29213; read-out: MIC

Question: With `CSC1O[C@H]([C@H](NC(=O)[C@H]2NC[C@@H]3C=C(c4ccc(F)cc4F)CCO[C@@H]23)[C@H](C)Cl)C(O)[C@@H](O)[C@H]1O` (stereo partly shown) [FSA-511072] as the molecule, how does the MIC read?
Answer: 1 µg/mL (≈ 1.82 µM)

Question: For `COc1ccc([C@@H]2CCO[C@@H]3[C@H](CN[C@@H]3C(=O)N[C@H]([C@H](C)Cl)[C@H]3OC(SC)[C@H](O)[C@H](O)C3O)C2)cc1` (stereo partly shown) [FSA-512080c], which MIC is on record?
Answer: 0.25 µg/mL (≈ 0.459 µM)

Tested on: S. aureus BAA 977 iErmA
Assay: MIC determination
Format: cell-based
Conditions: Staphylococcus aureus, BAA977

Question: `CSC1O[C@H]([C@H](NC(=O)[C@H]2NC[C@@H]3C=C(c4ccc(F)cc4F)CCO[C@@H]23)[C@H](C)Cl)C(O)[C@@H](O)[C@H]1O` (stereo partly shown) [FSA-511072] was tested. Which MIC did it give?
Answer: 1 µg/mL (≈ 1.82 µM)

Question: For `COc1ccc([C@@H]2CCO[C@@H]3[C@H](CN[C@@H]3C(=O)N[C@H]([C@H](C)Cl)[C@H]3OC(SC)[C@H](O)[C@H](O)C3O)C2)cc1` (stereo partly shown) [FSA-512080c], which MIC is on record?
Answer: 0.5 µg/mL (≈ 0.917 µM)

Tested on: S. aureus MP-549 msr(a) USA 300
Assay: MIC determination
Format: cell-based
Conditions: Staphylococcus aureus, USA300, S. aureus MP-549 msr(a) USA 300

Question: `CSC1O[C@H]([C@H](NC(=O)[C@H]2NC[C@@H]3C=C(c4ccc(F)cc4F)CCO[C@@H]23)[C@H](C)Cl)C(O)[C@@H](O)[C@H]1O` (stereo partly shown) [FSA-511072] was tested. Which MIC did it give?
Answer: 1 µg/mL (≈ 1.82 µM)

Question: For `COc1ccc([C@@H]2CCO[C@@H]3[C@H](CN[C@@H]3C(=O)N[C@H]([C@H](C)Cl)[C@H]3OC(SC)[C@H](O)[C@H](O)C3O)C2)cc1` (stereo partly shown) [FSA-512080c], which MIC is on record?
Answer: 0.5 µg/mL (≈ 0.917 µM)

Tested on: S. aureus MMX 3035 cErmA
Assay: MIC determination
Format: cell-based
Conditions: Staphylococcus aureus, MMX3035CERMA; S. aureus MMX 3035 cErmA; read-out: MIC

Question: `CSC1O[C@H]([C@H](NC(=O)[C@H]2NC[C@@H]3C=C(c4ccc(F)cc4F)CCO[C@@H]23)[C@H](C)Cl)C(O)[C@@H](O)[C@H]1O` (stereo partly shown) [FSA-511072] was tested. Which MIC did it give?
Answer: > 64 µg/mL

Question: With `COc1ccc([C@@H]2CCO[C@@H]3[C@H](CN[C@@H]3C(=O)N[C@H]([C@H](C)Cl)[C@H]3OC(SC)[C@H](O)[C@H](O)C3O)C2)cc1` (stereo partly shown) [FSA-512080c] as the molecule, how does the MIC read?
Answer: 128 µg/mL (≈ 235 µM)

Tested on: S. pneumoniae ATCC 49619
Assay: MIC determination
Format: cell-based
Conditions: Streptococcus pneumoniae, ATCC49619; S. pneumoniae ATCC 49619; read-out: MIC

Question: With `CSC1O[C@H]([C@H](NC(=O)[C@H]2NC[C@@H]3C=C(c4ccc(F)cc4F)CCO[C@@H]23)[C@H](C)Cl)C(O)[C@@H](O)[C@H]1O` (stereo partly shown) [FSA-511072] as the molecule, how does the MIC read?
Answer: 0.12 µg/mL (≈ 0.219 µM)

Question: How did the MIC turn out when `COc1ccc([C@@H]2CCO[C@@H]3[C@H](CN[C@@H]3C(=O)N[C@H]([C@H](C)Cl)[C@H]3OC(SC)[C@H](O)[C@H](O)C3O)C2)cc1` (stereo partly shown) [FSA-512080c] was run?
Answer: ≤ 0.06 µg/mL

Tested on: S. pneumoniae MMX 3028 cErmB
Assay: MIC determination
Format: cell-based
Conditions: Streptococcus pneumoniae, MMX3028CERMB

Question: How did the MIC turn out when `CSC1O[C@H]([C@H](NC(=O)[C@H]2NC[C@@H]3C=C(c4ccc(F)cc4F)CCO[C@@H]23)[C@H](C)Cl)C(O)[C@@H](O)[C@H]1O` (stereo partly shown) [FSA-511072] was run?
Answer: 64 µg/mL (≈ 117 µM)

Same assay, conditions: Streptococcus pneumoniae, MMX3028CERMB; S. pneumoniae MMX 3028 cErmB; read-out: MIC

Question: How did the MIC turn out when `COc1ccc([C@@H]2CCO[C@@H]3[C@H](CN[C@@H]3C(=O)N[C@H]([C@H](C)Cl)[C@H]3OC(SC)[C@H](O)[C@H](O)C3O)C2)cc1` (stereo partly shown) [FSA-512080c] was run?
Answer: 16 µg/mL (≈ 29.4 µM)

Tested on: S. pneumoniae MMX 3031 cMefA
Assay: MIC determination
Format: cell-based
Conditions: Streptococcus pneumoniae, MMX3031CMEFA

Question: For `CSC1O[C@H]([C@H](NC(=O)[C@H]2NC[C@@H]3C=C(c4ccc(F)cc4F)CCO[C@@H]23)[C@H](C)Cl)C(O)[C@@H](O)[C@H]1O` (stereo partly shown) [FSA-511072], which MIC is on record?
Answer: 0.12 µg/mL (≈ 0.219 µM)

Question: With `COc1ccc([C@@H]2CCO[C@@H]3[C@H](CN[C@@H]3C(=O)N[C@H]([C@H](C)Cl)[C@H]3OC(SC)[C@H](O)[C@H](O)C3O)C2)cc1` (stereo partly shown) [FSA-512080c] as the molecule, how does the MIC read?
Answer: 0.12 µg/mL (≈ 0.22 µM)

Tested on: S. pyogenes ATCC 19615
Assay: MIC determination
Format: cell-based
Conditions: Streptococcus pyogenes, ATCC19615; S. pyogenes ATCC 19615; read-out: MIC

Question: Which MIC does the source give for `CSC1O[C@H]([C@H](NC(=O)[C@H]2NC[C@@H]3C=C(c4ccc(F)cc4F)CCO[C@@H]23)[C@H](C)Cl)C(O)[C@@H](O)[C@H]1O` (stereo partly shown) [FSA-511072] here?
Answer: 0.25 µg/mL (≈ 0.455 µM)

Question: `COc1ccc([C@@H]2CCO[C@@H]3[C@H](CN[C@@H]3C(=O)N[C@H]([C@H](C)Cl)[C@H]3OC(SC)[C@H](O)[C@H](O)C3O)C2)cc1` (stereo partly shown) [FSA-512080c] was tested. Which MIC did it give?
Answer: ≤ 0.06 µg/mL

Tested on: S. pyogenes MMX 946 Macrolide-Resistant
Assay: MIC determination
Format: cell-based
Conditions: Streptococcus pyogenes; S. pyogenes MMX 946 MacRes; read-out: MIC

Question: `COc1ccc([C@@H]2CCO[C@@H]3[C@H](CN[C@@H]3C(=O)N[C@H]([C@H](C)Cl)[C@H]3OC(SC)[C@H](O)[C@H](O)C3O)C2)cc1` (stereo partly shown) [FSA-512080c] was tested. Which MIC did it give?
Answer: 64 µg/mL (≈ 117 µM)

Same assay, conditions: Streptococcus pyogenes; S. pyogenes MMX 946 Macrolide-Resistant (MacRes); read-out: MIC

Question: `CSC1O[C@H]([C@H](NC(=O)[C@H]2NC[C@@H]3C=C(c4ccc(F)cc4F)CCO[C@@H]23)[C@H](C)Cl)C(O)[C@@H](O)[C@H]1O` (stereo partly shown) [FSA-511072] was tested. Which MIC did it give?
Answer: > 64 µg/mL

Tested on: E. faecalis ATCC 29212
Assay: MIC determination
Format: cell-based
Conditions: Enterococcus faecalis, ATCC29212, read-out: MIC

Question: How did the MIC turn out when `CSC1O[C@H]([C@H](NC(=O)[C@H]2NC[C@@H]3C=C(c4ccc(F)cc4F)CCO[C@@H]23)[C@H](C)Cl)C(O)[C@@H](O)[C@H]1O` (stereo partly shown) [FSA-511072] was run?
Answer: 4 µg/mL (≈ 7.29 µM)

Question: `COc1ccc([C@@H]2CCO[C@@H]3[C@H](CN[C@@H]3C(=O)N[C@H]([C@H](C)Cl)[C@H]3OC(SC)[C@H](O)[C@H](O)C3O)C2)cc1` (stereo partly shown) [FSA-512080c] was tested. Which MIC did it give?
Answer: 2 µg/mL (≈ 3.67 µM)

Tested on: E. faecalis MMX 847 Macrolide-Resistant
Assay: MIC determination
Format: cell-based
Conditions: Enterococcus faecalis; E. faecalis MMX 847 MacRes; read-out: MIC

Question: With `COc1ccc([C@@H]2CCO[C@@H]3[C@H](CN[C@@H]3C(=O)N[C@H]([C@H](C)Cl)[C@H]3OC(SC)[C@H](O)[C@H](O)C3O)C2)cc1` (stereo partly shown) [FSA-512080c] as the molecule, how does the MIC read?
Answer: 128 µg/mL (≈ 235 µM)

Same assay, conditions: Enterococcus faecalis; E. faecalis MMX 847 Macrolide-Resistant (MacRes); read-out: MIC

Question: `CSC1O[C@H]([C@H](NC(=O)[C@H]2NC[C@@H]3C=C(c4ccc(F)cc4F)CCO[C@@H]23)[C@H](C)Cl)C(O)[C@@H](O)[C@H]1O` (stereo partly shown) [FSA-511072] was tested. Which MIC did it give?
Answer: > 64 µg/mL

Tested on: K. pneumoniae ATCC 10031
Assay: MIC determination
Format: cell-based
Conditions: Klebsiella pneumoniae, ATCC10031

Question: Which MIC does the source give for `CSC1O[C@H]([C@H](NC(=O)[C@H]2NC[C@@H]3C=C(c4ccc(F)cc4F)CCO[C@@H]23)[C@H](C)Cl)C(O)[C@@H](O)[C@H]1O` (stereo partly shown) [FSA-511072] here?
Answer: 32 µg/mL (≈ 58.3 µM)

Tested on: E. coli ATCC 25922
Assay: MIC determination
Format: cell-based
Conditions: Escherichia coli, ATCC25922, E. coli ATCC 25922; read-out: MIC

Question: For `CSC1O[C@H]([C@H](NC(=O)[C@H]2NC[C@@H]3C=C(c4ccc(F)cc4F)CCO[C@@H]23)[C@H](C)Cl)C(O)[C@@H](O)[C@H]1O` (stereo partly shown) [FSA-511072], which MIC is on record?
Answer: > 64 µg/mL

Question: With `COc1ccc([C@@H]2CCO[C@@H]3[C@H](CN[C@@H]3C(=O)N[C@H]([C@H](C)Cl)[C@H]3OC(SC)[C@H](O)[C@H](O)C3O)C2)cc1` (stereo partly shown) [FSA-512080c] as the molecule, how does the MIC read?
Answer: > 128 µg/mL

Tested on: E. coli MP-9 ΔTolC
Assay: MIC determination
Format: cell-based
Conditions: Escherichia coli

Question: How did the MIC turn out when `CSC1O[C@H]([C@H](NC(=O)[C@H]2NC[C@@H]3C=C(c4ccc(F)cc4F)CCO[C@@H]23)[C@H](C)Cl)C(O)[C@@H](O)[C@H]1O` (stereo partly shown) [FSA-511072] was run?
Answer: 32 µg/mL (≈ 58.3 µM)

Question: `COc1ccc([C@@H]2CCO[C@@H]3[C@H](CN[C@@H]3C(=O)N[C@H]([C@H](C)Cl)[C@H]3OC(SC)[C@H](O)[C@H](O)C3O)C2)cc1` (stereo partly shown) [FSA-512080c] was tested. Which MIC did it give?
Answer: 8 µg/mL (≈ 14.7 µM)

Tested on: E. coli MP-74 LptD mutant
Assay: MIC determination
Format: cell-based
Conditions: Escherichia coli

Question: `CSC1O[C@H]([C@H](NC(=O)[C@H]2NC[C@@H]3C=C(c4ccc(F)cc4F)CCO[C@@H]23)[C@H](C)Cl)C(O)[C@@H](O)[C@H]1O` (stereo partly shown) [FSA-511072] was tested. Which MIC did it give?
Answer: 64 µg/mL (≈ 117 µM)

Question: How did the MIC turn out when `COc1ccc([C@@H]2CCO[C@@H]3[C@H](CN[C@@H]3C(=O)N[C@H]([C@H](C)Cl)[C@H]3OC(SC)[C@H](O)[C@H](O)C3O)C2)cc1` (stereo partly shown) [FSA-512080c] was run?
Answer: 32 µg/mL (≈ 58.7 µM)

Tested on: H. influenzae ATCC 49247
Assay: MIC determination
Format: cell-based
Conditions: Haemophilus influenzae, ATCC49247

Question: Which MIC does the source give for `COc1ccc([C@@H]2CCO[C@@H]3[C@H](CN[C@@H]3C(=O)N[C@H]([C@H](C)Cl)[C@H]3OC(SC)[C@H](O)[C@H](O)C3O)C2)cc1` (stereo partly shown) [FSA-512080c] here?
Answer: 32 µg/mL (≈ 58.7 µM)

Same assay, conditions: Haemophilus influenzae, ATCC49247; H. influenzae ATCC 49247; read-out: MIC

Question: How did the MIC turn out when `CSC1O[C@H]([C@H](NC(=O)[C@H]2NC[C@@H]3C=C(c4ccc(F)cc4F)CCO[C@@H]23)[C@H](C)Cl)C(O)[C@@H](O)[C@H]1O` (stereo partly shown) [FSA-511072] was run?
Answer: > 64 µg/mL
